From PMC2196141 (The Journal of Experimental Medicine, 1997)

Molecular target: T1, CPP-32 (Homo sapiens, UniProt P42574)
T1 sequence (P42574 29-175 limits assumed): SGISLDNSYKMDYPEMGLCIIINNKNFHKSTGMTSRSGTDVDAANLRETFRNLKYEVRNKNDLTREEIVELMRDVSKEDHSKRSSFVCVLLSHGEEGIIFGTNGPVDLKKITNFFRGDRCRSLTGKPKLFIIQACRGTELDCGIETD
Experiment: S-nitrosylation of purified p17
Type: biochemical

In the case of [N]=O [NO, nitric oxide], the “p17 wt / S-nitrosylation / S-NO/protein” value is reported as 1 ± 0.04 mol/mol.
